# Assay results from patent publication US20250017891A1, “PHARMACEUTICAL COMPOSITION COMPRISING CABAZITAXEL PRODRUG-CYCLODEXTRIN INCLUSION COMPLEX, AND APPLICATIONS THEREOF” (TWI PHARMACEUTICALS, INC., priority 2023, published 2025).
# Values joined by “and” are separate entries in the source; they are usually repeats but may differ in a detail not shown here. Identical values can stand only once. Like-named read-outs stand apart in the source and are kept apart here.
# Assays:
# [1] = In vivo bioconversion of CBT succinate in 50% PEG300 formulation, IV, mouse plasma by LC-MS/MS; design: species or system ICR male mice; details: 15 mg/kg IV
# Experimental: The bioanalysis results are tabulated as Tables 1 to 3 below. The values of mean and standard deviation (SD) are calculated. BLOQ means “below the limit of quantification”, and N/A means “not available”. Normal saline used herein is 0.90% sodium chloride aqueous solution.
# C0: Initial concentration; • 3. […] AUC/D: AUC divided by dose; • 6.
# [2] = Hydrolysis of CBT succinate dissolved in the aqueous preclinical formulation; assay type: physicochemical; details: 50% PEG300 in normal saline
# [3] = Saturation test of CBT succinate-SBECD (1:2.2), solubility; assay type: physicochemical; details: aqueous buffer, thermodynamic from solid, excess complex dissolved by 20 mM pH 8.0 phosphate buffer, read-out: CBT succinate water solubility
# Source text: For the CBT succinate-SBECD (1:2.2), a saturation test was further carried out.
# [4] = even in the mixed solvent of water and organic reagent; cited from earlier work
# [5] = analyte Cabazitaxel in mouse plasma, CBT succinate in 50% PEG300 formulation, time 24 h
# [6] = male, ICR, mouse plasma, CBT succinate in 50% PEG300 formulation
# [7] = mouse plasma, CBT succinate in 50% PEG300 formulation
# [8] = mouse plasma, CBT succinate in 50% PEG300 formulation, time 4 h
# [9] = mouse plasma, CBT succinate in 50% PEG300 formulation, time 8 h
# [10] = mouse plasma, CBT succinate in 50% PEG300 formulation, time 24 h
compound,measurement,setting,value
"CO[C@H]1C(=O)[C@]2(C)[C@@H](OC)C[C@H]3OC[C@@]3(OC(C)=O)[C@H]2[C@H](OC(=O)c2ccccc2)[C@]2(O)C[C@H](OC(=O)[C@H](OC(=O)CCC(=O)O)[C@@H](NC(=O)OC(C)(C)C)c3ccccc3)C(C)=C1C2(C)C [CBT succinate, cabazitaxel succinate]",CBT concentration (individual mouse),"[1]; analyte Cabazitaxel in mouse plasma, CBT succinate in 50% PEG300 formulation, time 8 h, 15 mg/kg",BLOQ
same,CBT concentration (individual mouse),[1]; [5],BLOQ
same,"CBT concentration, Mean",[1]; [5],BLOQ
same,concentration at 0.083 h,"[1]; male, ICR, mouse, plasma, iv, 15 mg/kg, mouse plasma, CBT succinate in 50% PEG300 formulation, time 0.083 h, read-out: CBT succinate concentration (individual mouse)",5980 ng/mL
same,concentration at 0.083 h,"[1]; male, ICR, mouse, plasma, iv, 15 mg/kg, mouse plasma, CBT succinate in 50% PEG300 formulation, time 0.083 h, read-out: CBT succinate concentration, Mean",5750 ng/mL
same,concentration at 0.167 h,"[1]; male, ICR, mouse, plasma, iv, 15 mg/kg, mouse plasma, CBT succinate in 50% PEG300 formulation, time 0.167 h, read-out: CBT succinate concentration (individual mouse)",3100 ng/mL
same,concentration at 0.167 h,"[1]; male, ICR, mouse, plasma, iv, 15 mg/kg, mouse plasma, CBT succinate in 50% PEG300 formulation, time 0.167 h, read-out: CBT succinate concentration, Mean",3030 ng/mL
same,concentration at 0.5 h,"[1]; male, ICR, mouse, plasma, iv, 15 mg/kg, mouse plasma, CBT succinate in 50% PEG300 formulation, time 0.5 h",386 ng/mL
same,concentration at 1 h,"[1]; male, ICR, mouse, plasma, iv, 15 mg/kg, mouse plasma, CBT succinate in 50% PEG300 formulation, time 1 h",50 ng/mL
same,concentration at 2 h,"[1]; male, ICR, mouse, plasma, iv, 15 mg/kg, mouse plasma, CBT succinate in 50% PEG300 formulation, time 2 h, read-out: CBT succinate concentration (individual mouse)",15 ng/mL
same,concentration at 2 h,"[1]; male, ICR, mouse, plasma, iv, 15 mg/kg, mouse plasma, CBT succinate in 50% PEG300 formulation, time 2 h, read-out: CBT succinate concentration, Mean",15 ng/mL
same,C0,[1]; [6],10800 ng/mL
same,MRT,[1]; [6],9.6 min
same,AUC(0-inf),"[1]; male, ICR, mouse plasma, CBT succinate in 50% PEG300 formulation, read-out: AUCInf of CBT Succinate",1770 ng·h/mL
same,AUC(0-t),"[1]; male, ICR, mouse plasma, CBT succinate in 50% PEG300 formulation, read-out: AUClast of CBT Succinate",1770 ng·h/mL
same,clearance,"[1]; male, ICR, mouse plasma, CBT succinate in 50% PEG300 formulation, read-out: CL of CBT Succinate",141 mL/min/kg
same,Vd,"[1]; male, ICR, mouse plasma, CBT succinate in 50% PEG300 formulation, read-out: Vss of CBT Succinate",1.38 L/kg
same,half-life,"[1]; male, ICR, mouse plasma, CBT succinate in 50% PEG300 formulation, read-out: t1/2 of CBT Succinate (converted)",13.8 min
same,bioconversion of CBT succinate to CBT,"[1]; mice, 50% PEG300 formulation",very rapidly
same,AUC Extr of CBT Succinate,[1]; [7],0.28%
same,AUC/D of CBT Succinate,[1]; [7],118 kg·ng·h/mL/mg
same,CBT succinate concentration (individual mouse),"[1]; mouse plasma, CBT succinate in 50% PEG300 formulation, time 0.083 h, 15 mg/kg",5803 ng/mL and 5480 ng/mL
same,CBT succinate concentration (individual mouse),"[1]; mouse plasma, CBT succinate in 50% PEG300 formulation, time 0.167 h, 15 mg/kg",3144 ng/mL and 2857 ng/mL
same,CBT succinate concentration (individual mouse),"[1]; mouse plasma, CBT succinate in 50% PEG300 formulation, time 0.5 h, 15 mg/kg",541 ng/mL and 397 ng/mL and 221 ng/mL
same,CBT succinate concentration (individual mouse),"[1]; mouse plasma, CBT succinate in 50% PEG300 formulation, time 1 h, 15 mg/kg",25 ng/mL and 51 ng/mL and 73 ng/mL
same,CBT succinate concentration (individual mouse),"[1]; mouse plasma, CBT succinate in 50% PEG300 formulation, time 2 h, 15 mg/kg",BLOQ
same,CBT succinate concentration (individual mouse),[1]; [8],BLOQ
same,"CBT succinate concentration, Mean",[1]; [8],BLOQ
same,CBT succinate concentration (individual mouse),[1]; [9],BLOQ
same,"CBT succinate concentration, Mean",[1]; [9],BLOQ
same,CBT succinate concentration (individual mouse),[1]; [10],BLOQ
same,"CBT succinate concentration, Mean",[1]; [10],BLOQ
same,hydrolysis when dissolved in the aqueous preclinical formulation,[2],prone to hydrolysis
same,solubility,[3],120 µg/mL
CO[C@H]1C(=O)[C@]2(C)[C@@H](OC)C[C@H]3OC[C@@]3(OC(C)=O)[C@H]2[C@H](OC(=O)c2ccccc2)[C@]2(O)C[C@H](OC(=O)[C@H](O)[C@@H](NC(=O)OC(C)(C)C)c3ccccc3)C(C)=C1C2(C)C [cabazitaxel],solubility,[4],almost insoluble
